# What was measured:
# Type in all cases: cell-based
# [1] = tested on: E. faecium sensitive (49624); experiment: MIC, standard microdilution assay, E. faecium sensitive; conditions: strain 49624; for MIC: Enterococcus faecium, 22 h
# Protocol: (§1) Briefly, compound 7 and compound 10 were synthesized by utilizing procedures described, for example, in Thompson, C. et al., J. Am. Chem. Soc., 1999, 121, 1237. Compound 8 was prepared from tri-O-acetyl-D-glucal by a one-step procedure described by Chen, Z. Ph.D. Dissertation, Princeton University, Princeton, N.J. 2001.
# [2] = tested on: E. faecium resistant (VanA) (CL4931); experiment: MIC, standard microdilution assay, E. faecium resistant (VanA); conditions: strain CL4931; for MIC: Enterococcus faecium, 22 h
# Protocol: as §1
# [3] = tested on: E. faecalis sensitive (29212); experiment: MIC, standard microdilution assay, E. faecalis sensitive; conditions: strain 29212; for MIC: Enterococcus faecalis, 22 h
# Protocol: as §1
# [4] = tested on: E. faecalis resistant (VanB) (CL4877); experiment: MIC, standard microdilution assay, E. faecalis resistant (VanB); conditions: strain CL4877; for MIC: Enterococcus faecalis, 22 h
# Protocol: as §1
# S. aureus (29213) = experiment: MIC, standard microdilution assay, S. aureus; conditions: strain 29213; for MIC: Staphylococcus aureus, 22 h
# Protocol: as §1
# transglycosylation = experiment: Inhibition of transglycosylation in a permeabilized E. coli model
compound,measurement,setting,value
CCCCCCCCCCCCOP(=O)(O)OC1OC(C(N)=O)C(OC)C(NC(=O)Nc2ccc(Cl)c(C(F)(F)F)c2)C1OC1OC(CO)C(O)C(O)C1NC(=O)c1cccc(C(F)(F)F)c1 (stereo not drawn) [Compound 4],MIC,[1]; Table 2,6.2 µg/mL
same,MIC,[2]; Table 2,6.2 µg/mL
same,MIC,[3]; Table 2,6.2 µg/mL
same,MIC,[4]; Table 2,3.1 µg/mL
same,MIC,S. aureus (29213); Table 2,6.2 µg/mL
same,inhibition of transglycosylation,transglycosylation,inhibits transglycosylation
COc1cccc(OC)c1OCCOC1OC(C(N)=O)C(OC)C(NC(=O)Nc2ccc(Cl)c(C(F)(F)F)c2)C1OC1OC(CO)C(O)C(O)C1NC(=O)c1cccc(C(F)(F)F)c1 (stereo not drawn) [Compound 6],MIC,[1]; Table 2,250 µg/mL
same,MIC,[2]; Table 2,250 µg/mL
same,MIC,[3]; Table 2,125 µg/mL
same,MIC,[4]; Table 2,250 µg/mL
same,MIC,S. aureus (29213); Table 2,125 µg/mL
"CN[C@H](CC(C)C)C(=O)N[C@H]1C(=O)N[C@@H](CC(N)=O)C(=O)N[C@H]2C(=O)N[C@H]3C(=O)N[C@H](C(=O)N[C@H](C(=O)O)c4cc(O)cc(O)c4-c4cc3ccc4O)[C@H](O)c3ccc(c(Cl)c3)Oc3cc2cc(c3O)Oc2ccc(cc2Cl)[C@H]1O [Vancomycin Aglycon, Vancomycin aglycone]",22-hr MIC E. faecium sensitive,[1]; Table 2,2 µg/mL
same,22-hr MIC E. faecium resistant (VanA),[2]; Table 2,>500 µg/mL
same,22-hr MIC E. faecalis sensitive,[3]; Table 2,8 µg/mL
same,22-hr MIC E. faecalis resistant (VanB),[4]; Table 2,>500 µg/mL
same,22-hr MIC S. aureus,S. aureus (29213); Table 2,2 µg/mL
vancomycin [Compound 1a],MIC E. faecium sensitive,"[1]; Table 1, 35° C., 22h",2 µg/mL
same,MIC E. faecium resistant (VanA),"[2]; Table 1, 35° C., 22h",>500 µg/mL
same,MIC E. faecalis sensitive,"[3]; Table 1, 35° C., 22h",16 µg/mL
same,MIC E. faecalis resistant (VanB),"[4]; Table 1, 35° C., 22h",>500 µg/mL
same,MIC S. aureus,"S. aureus (29213); Table 1, 35° C., 22h",4 µg/mL
